Measurements taken from paper PMC10940802 (Computational and Structural Biotechnology Journal, 2024).

What was measured:
Test in all cases: UPLC glycosylation assay, […] nm
Assay type in all cases: biochemical, Periploca forrestii
Details in all cases: UDP-glucose as sugar donor; 10 mM PBS pH 8.0, 37 °C
[1] = tested on: PfUGT92A8
[2] = tested on: PfUGT74B4
[3] = tested on: PfUGT74E7
[4] = tested on: PfUGT75C6

SMILES	Km [1] [µM]	Km [2] [µM]	Km [3] [µM]	Km [4] [µM]
O=C1CC(O)(c2ccc(O)cc2)Oc2cc(O)cc(O)c21 (centres unmarked) [2-Hydroxynaringenin]	51.4	47.8	–	–
COc1ccc(-c2cc(=O)c3c(O)cc(O)cc3o2)cc1 [Acacetin]	–	2.23	–	–
O=c1cc(-c2ccc(O)cc2)oc2cc(O)cc(O)c12 [Apigenin]	148	50.2	5.97	29
O=c1cc(-c2ccc(O)c(O)c2)oc2cc(O)c([C@@H]3O[C@H](CO)[C@@H](O)[C@H](O)[C@H]3O)c(O)c12 [Isoorientin]	134	65.2	–	–
O=c1cc(-c2ccc(O)cc2)oc2cc(O)c([C@@H]3O[C@H](CO)[C@@H](O)[C@H](O)[C@H]3O)c(O)c12 [Isovitexin]	78.2	58.6	–	–
O=c1cc(-c2ccc(O)c(O)c2)oc2cc(O)cc(O)c12 [Luteolin]	252	58.3	7.75	28.4
O=c1cc(-c2ccc(O)c(O)c2)oc2c([C@@H]3O[C@H](CO)[C@@H](O)[C@H](O)[C@H]3O)c(O)cc(O)c12 [Orientin]	218	–	–	–
O=C(CCc1ccc(O)cc1)c1c(O)cc(O)cc1O [Phloretin]	34.7	45.6	–	–
O=c1cc(-c2ccc(O)cc2)oc2c([C@@H]3O[C@H](CO)[C@@H](O)[C@H](O)[C@H]3O)c(O)cc(O)c12 [Vitexin]	94.2	307	–	–
